Measurements as given in patent US20170196853A1 (AB SCIENCE, priority 2014, published 2017).

Tests used:
FYN = FYN (Homo sapiens, UniProt P06241); assay: In vitro enzymatic phosphorylation assay, FYN; type: biochemical
LYN = LYN (Homo sapiens, UniProt P07948); assay: In vitro enzymatic phosphorylation assay, LYN; type: biochemical
LYN, sequence (P07948 whole entry, species assumed): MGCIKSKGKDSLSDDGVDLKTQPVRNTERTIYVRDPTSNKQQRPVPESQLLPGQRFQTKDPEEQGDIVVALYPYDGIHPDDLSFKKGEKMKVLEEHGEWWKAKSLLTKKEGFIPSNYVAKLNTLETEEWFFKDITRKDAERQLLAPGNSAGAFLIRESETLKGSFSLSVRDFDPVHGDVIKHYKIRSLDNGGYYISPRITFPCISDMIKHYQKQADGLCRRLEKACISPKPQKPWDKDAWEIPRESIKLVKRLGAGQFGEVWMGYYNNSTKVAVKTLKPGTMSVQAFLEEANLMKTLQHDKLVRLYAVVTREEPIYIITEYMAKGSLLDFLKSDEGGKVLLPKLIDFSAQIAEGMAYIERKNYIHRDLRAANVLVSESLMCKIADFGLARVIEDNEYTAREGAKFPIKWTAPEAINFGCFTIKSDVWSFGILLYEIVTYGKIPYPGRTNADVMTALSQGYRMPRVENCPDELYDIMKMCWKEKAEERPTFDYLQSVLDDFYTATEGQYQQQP

FYN, sequence (P06241 whole entry, species assumed): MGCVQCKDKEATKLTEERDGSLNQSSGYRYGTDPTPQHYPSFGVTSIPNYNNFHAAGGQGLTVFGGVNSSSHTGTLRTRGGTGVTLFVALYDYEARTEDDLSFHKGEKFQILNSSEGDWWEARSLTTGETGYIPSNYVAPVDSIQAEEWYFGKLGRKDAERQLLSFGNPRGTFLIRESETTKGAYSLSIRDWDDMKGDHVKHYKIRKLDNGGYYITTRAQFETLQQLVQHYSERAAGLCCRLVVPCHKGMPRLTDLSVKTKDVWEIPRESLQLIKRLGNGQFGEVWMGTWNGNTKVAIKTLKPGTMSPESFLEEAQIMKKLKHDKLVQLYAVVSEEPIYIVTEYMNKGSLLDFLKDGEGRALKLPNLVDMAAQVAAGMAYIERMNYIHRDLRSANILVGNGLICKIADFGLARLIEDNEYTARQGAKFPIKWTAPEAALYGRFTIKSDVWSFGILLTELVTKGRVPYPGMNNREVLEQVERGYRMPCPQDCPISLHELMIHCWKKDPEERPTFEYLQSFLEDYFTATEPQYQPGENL

- IC50 (FYN): 240 nM
- IC50 (LYN): 220 nM
Compound: Cc1ccc(NC(=O)c2ccc(CN3CCN(C)CC3)cc2)cc1Nc1nc(-c2cccnc2)cs1 [masitinib, 4-(4-methylpiperazin-1-ylmethyl)-N-[4-methyl-3-(4-pyridin-3y1thiazol-2-ylamino)phenyl]benzamide]
